Laboratory results reported in US20060069132A1, “Azolecarboxamide herbicides” (priority 2004, published 2006).

Experiments:
[1] = test system: corn; assay: Test B pre-/postemergence herbicide test; assay type: in vivo, Zea mays; details: for Corn plant response rating: postemergence, scale 0 (no effect) to 100 (complete control)
Procedure, shortened: (§1)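 Herbicidal effect was judged by eye on a 0–100 scale after plants stood 13 to 15 days in the greenhouse following pre- or postemergence treatment with surfactant-containing formulations.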

[2] = test system: rice; assay: Test B pre-/postemergence herbicide test; assay type: in vivo, Oryza sativa; details: 0 = no effect, 100 = complete control, preemergence
Procedure, shortened: as §1

[3] = test system: pigweed; assay: Test B pre-/postemergence herbicide test; assay type: in vivo, Amaranthus retroflexus; details: for Pigweed plant response rating: postemergence, scale 0 (no effect) to 100 (complete control)
Procedure, shortened: as §1

[4] = test system: wild oat; assay: Test B postemergence herbicide test; assay type: in vivo, Avena fatua; details: postemergence, visual rating, scale 0 (no effect) to 100 (complete control)
Procedure, shortened: (§2)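 Read-out: visual comparison with controls, scored 0 to 100, where 100 means complete control and 0 no effect. Formulated chemicals were applied postemergence to plants 2–18 cm tall (1- to 4-leaf), or to flooded-paddy plants at the 2-leaf stage, then held 13 to 15 days under glass.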

[5] = test system: blackgrass; assay: Test B postemergence herbicide test; assay type: in vivo, Alopecurus myosuroides; details: postemergence, visual rating, scale 0 (no effect) to 100 (complete control)
Procedure, shortened: (§3)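 Scale 0–100: zero equals no visible effect, 100 complete control, judged by eye relative to controls. Timing: 13 to 15 days in greenhouse post-treatment. Growth stage at spraying: two leaves (paddy) or one to four leaves, 2–18 cm (postemergence).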

[6] = test system: lambsquarters; assay: Test B pre-/postemergence herbicide test; assay type: in vivo, Chenopodium album; details: for Lambsquarters plant response rating: postemergence, scale 0 (no effect) to 100 (complete control)
Procedure, shortened: as §1

[7] = test system: barnyardgrass; assay: Test B pre-/postemergence herbicide test; assay type: in vivo, Echinochloa crus-galli; details: for Barnyardgrass plant response rating: postemergence, scale 0 (no effect) to 100 (complete control)
Procedure, shortened: (§4)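 Formulation: non-phytotoxic solvent mix with surfactant. Timing: preemergence on seed and postemergence on 2–18 cm plants, applied concurrently. Readout after 13–15 d greenhouse: visual 0–100 control rating against controls.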

[8] = test system: Surinam grass; assay: Test B pre-/postemergence herbicide test; assay type: in vivo, Urochloa decumbens; details: for Surinam Grass plant response rating: postemergence, scale 0 (no effect) to 100 (complete control)
Procedure, shortened: as §1

[9] = test system: morningglory; assay: Test B pre-/postemergence herbicide test; assay type: in vivo, Ipomoea coccinea; details: for Morningglory plant response rating: postemergence, scale 0 (no effect) to 100 (complete control)
Procedure, shortened: as §4

[10] = test system: rice; assay: Test B flooded paddy test; assay type: in vivo, Oryza sativa; details: 1000 g ai/ha, scale 0 to 100 (0 no effect, 100 complete control)
Procedure, shortened: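 Treated at 2-leaf (paddy) or 1–4-leaf, 2–18 cm (postemergence); greenhouse 13–15 d; visual score vs control, 0 none to 100 complete control; dash = not tested.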

[11] = test system: velvetleaf; assay: Test B pre-/postemergence herbicide test; assay type: in vivo, Abutilon theophrasti; details: for Velvetleaf plant response rating: postemergence, scale 0 (no effect) to 100 (complete control)
Procedure, shortened: as §1

[12] = test system: ducksalad; assay: Test B flooded paddy test; assay type: in vivo, Heteranthera limosa; details: 1000 g ai/ha, scale 0 to 100 (0 no effect, 100 complete control)
Procedure, shortened: as §3

[13] = test system: large crabgrass; assay: Test B pre-/postemergence herbicide test; assay type: in vivo, Digitaria sanguinalis; details: for Crabgrass, Large plant response rating: postemergence, scale 0 (no effect) to 100 (complete control)
Procedure, shortened: as §1

[14] = test system: small flower umbrella sedge; assay: Test B flooded paddy test; assay type: in vivo, Cyperus difformis; details: 1000 g ai/ha, scale 0 to 100 (0 no effect, 100 complete control)
Procedure, shortened: as §3

[15] = test system: cocklebur; assay: Test B pre-/postemergence herbicide test; assay type: in vivo, Xanthium strumarium; details: for Cocklebur plant response rating: postemergence, scale 0 (no effect) to 100 (complete control)
Procedure, shortened: as §4

[16] = test system: wheat; assay: Test B postemergence herbicide test; assay type: in vivo, Triticum aestivum; set-up: key to Wheat plant response rating: 0 = no effect, 100 = complete control; details: postemergence, visual rating, scale 0 (no effect) to 100 (complete control)
Procedure, shortened: as §2

[17] = test system: barnyardgrass; assay: Test B flooded paddy test; assay type: in vivo, Echinochloa crus-galli; details: 1000 g ai/ha, scale 0 to 100 (0 no effect, 100 complete control)
Procedure, shortened: as §3

[18] = test system: giant foxtail; assay: Test B pre-/postemergence herbicide test; assay type: in vivo, Setaria faberi; details: for Foxtail, Giant plant response rating: postemergence, scale 0 (no effect) to 100 (complete control)
Procedure, shortened: as §1

[19] = 125 g ai/ha, 0 = no effect, 100 = complete control, preemergence
[20] = 500 g ai/ha, visual rating, 0 = no effect, 100 = complete control, preemergence

## CCc1nn(C(C)(C)C)cc1C(=O)Nc1ccc(F)c(C(=O)N(C)C)c1 [Compound 239]
[1]; [19]
  Corn plant response rating (0 to 100 scale): 0
[1]; [20]
  Plant response rating, Corn: 0
[1]; 125 g ai/ha, visual rating
  Corn plant response rating: 0
[1]; 500 g ai/ha, visual rating
  Corn plant response rating: 20
[2]; 125 g ai/ha
  Rice plant response rating (0 to 100 scale): 0
[2]; 500 g ai/ha, visual rating
  Plant response rating, Rice: 0
[3]; [19]
  Pigweed plant response rating (0 to 100 scale): 0
[3]; [20]
  Plant response rating, Pigweed: 70
[3]; 125 g ai/ha, visual rating
  Pigweed plant response rating: 20
[3]; 500 g ai/ha, visual rating
  Pigweed plant response rating: 50
[4]; 125 g ai/ha
  Oat, Wild plant response rating: 0
[4]; 500 g ai/ha
  Oat, Wild plant response rating: 0
[5]; 125 g ai/ha
  Blackgrass plant response rating: 0
[5]; 500 g ai/ha
  Blackgrass plant response rating: 0
[6]; [19]
  Lambsquarters plant response rating (0 to 100 scale): 20
[6]; [20]
  Plant response rating, Lambsquarters: 70
[6]; 125 g ai/ha, visual rating
  Lambsquarters plant response rating: 0
[6]; 500 g ai/ha, visual rating
  Lambsquarters plant response rating: 30
[7]; [19]
  Barnyardgrass plant response rating (0 to 100 scale): 0
[7]; [20]
  Plant response rating, Barnyardgrass: 60
[7]; 125 g ai/ha, visual rating
  Barnyardgrass plant response rating: 0
[7]; 500 g ai/ha, visual rating
  Barnyardgrass plant response rating: 0
[8]; [19]
  Surinam Grass plant response rating (0 to 100 scale): 0
[8]; [20]
  Plant response rating, Surinam Grass: 0
[8]; 125 g ai/ha, visual rating
  Surinam Grass plant response rating: 0
[8]; 500 g ai/ha, visual rating
  Surinam Grass plant response rating: 30
[9]; [19]
  Morningglory plant response rating (0 to 100 scale): 0
[9]; [20]
  Plant response rating, Morningglory: 0
[9]; 125 g ai/ha, visual rating
  Morningglory plant response rating: 0
[9]; 500 g ai/ha, visual rating
  Morningglory plant response rating: 10
[10]
  Rice plant response rating: 30
[11]; [19]
  Velvetleaf plant response rating (0 to 100 scale): 0
[11]; [20]
  Plant response rating, Velvetleaf: 0
[11]; 125 g ai/ha, visual rating
  Velvetleaf plant response rating: 0
[11]; 500 g ai/ha, visual rating
  Velvetleaf plant response rating: 10
[12]
  Ducksalad plant response rating: 0
[13]; [19]
  Crabgrass, Large plant response rating (0 to 100 scale): 0
[13]; [20]
  Plant response rating, Crabgrass, Large: 100
[13]; 125 g ai/ha, visual rating
  Crabgrass, Large plant response rating: 0
[13]; 500 g ai/ha, visual rating
  Crabgrass, Large plant response rating: 20
[14]
  Sedge, Umbrella plant response rating: 70
[15]; [19]
  Cocklebur plant response rating (0 to 100 scale): 0
[15]; [20]
  Plant response rating, Cocklebur: 0
[15]; 125 g ai/ha, visual rating
  Cocklebur plant response rating: 0
[15]; 500 g ai/ha, visual rating
  Cocklebur plant response rating: 20
[16]; 125 g ai/ha
  Wheat plant response rating: 0
[16]; 500 g ai/ha
  Wheat plant response rating: 0
[17]
  Barnyardgrass plant response rating: 0
[18]; [19]
  Foxtail, Giant plant response rating (0 to 100 scale): 0
[18]; [20]
  Plant response rating, Foxtail, Giant: 0
[18]; 125 g ai/ha, visual rating
  Foxtail, Giant plant response rating: 0
[18]; 500 g ai/ha, visual rating
  Foxtail, Giant plant response rating: 0
